Reference: PMC4773869, “Influence of plasma-activated compounds on melanogenesis and tyrosinase activity” (Scientific Reports, 2016)
Where two headings read alike, the source gives them in different places.

How the values were obtained:
cAMP in B16F10 cells = assay: Intracellular cAMP measurement (cAMP kit); assay type: cell-based, murine; conditions: for cAMP level: PAED (plasma-treated compound), compared with as-synthesized compound and control; for cAMP level compared to the control: as-synthesized compound, control: media only with cells
Method: For cAMP measurement, the 4b and 6a were treated with plasma for 3, 5, and 10 min, and then added to the cells, pre-incubated with or without α-MSH (100 nM) for 24 hr. The cells were trypsinised and centrifuged to obtain the cell pellets. The cell pellet was lysed and the cAMP level was measured using a cAMP Kit (Abcam, USA) according to the manufacturer’s instructions.

mushroom tyrosinase = mushroom tyrosinase (Agaricus bisporus, UniProt C7FF04); assay: Mushroom tyrosinase inhibition assay (L-DOPA, dopachrome at 492 nm); assay type: biochemical; parameters: purchased Sigma Chemical Co. USA; conditions: mean ± SD, read-out: Tyrosinase inhibitory activity IC50 (converted)
Method: To determine the action of ED and PAED, we checked the mushroom tyrosinase inhibitory activity in a cell-free environment. […] Moreover, after plasma treatment for different time intervals, we observed that inhibition activity of 4a, 4b, 4d and 6a was improved more as compared to without treatment. […] However, we observed the highest relative improvement in IC50 value of compound 4b among all ED compounds at 10 min plasma treatment. […] Therefore, we used the 4b and 6a compounds for further investigations, based on the decrease in IC50 value to a global minimum of the experiment after plasma treatment.
The mushroom tyrosinase was used for in vitro bioassays as described previously with some modifications. Briefly, 140 μl of phosphate buffer (20 mM, pH 6.8), 20 μl of mushroom tyrosinase (30 U/ml), and 20 μl of the inhibitor solution were placed in the wells of a 96-well plate. After pre-incubation for 10 min at room temperature, 20 μl of L-DOPA (3,4-dihydroxyphenylalanine) (0.85 mM) was added and the plate was further incubated at 25 °C for 20 min. Subsequently the absorbance of dopachrome was measured at 492 nm using a micro plate reader (OPTI Max, Tunable). Kojic acid was used as a reference inhibitor. The extent of inhibition by the test compounds was expressed as the […] necessary to achieve 50% inhibition (IC50). Each concentration was analyzed in three independent experiments run in triplicate. The IC50 values were determined by the data analysis and graphing software, Origin.

B16F10 cells = assay: Intracellular melanin content measurement; assay type: cell-based, murine; conditions: for activity at 35 µg/mL: Mus musculus, B16-F10, 35 μg/ml, read-out: melanin content, % of control (100%); for melanin, % of control (normalized to 100%): as-synthesized ED, no α-MSH, concentration not given
Method: Melanoma (1.5 × 10^5) cells were seeded in cell culture plates and allowed to attach for 24 hr. Then each eugenol derivative was added and tested separately for melanin activation after 24 hr of incubation. After incubation, cells were detached using trypsin/EDTA and centrifuged at 1000 rpm for 5 min to collect the cell pellets. The cell pellets were solubilized in 1N NaOH at 60 °C for 1 hr. The melanin content was measured spectrophotometrically at 405 nm wavelength using a microplate reader (BioTek, synergy HT)[56]. […] Plasma-treated and non-plasma-treated ED (4b and 6a) were added to the cells, pre-incubated with or without α-MSH (100 nM) for a further 24 hr and melanin content was assayed as described above. Kojic acid can inhibit and α-MSH can stimulate the melanin in the cells, therefore we used them as negative and positive controls.

[1] = Con: as-synthesized, before plasma treatment, cell-free
[2] = compound after 3 min N2 APPJ plasma treatment
[3] = compound after 5 min N2 APPJ plasma treatment
[4] = compound after 10 min N2 APPJ plasma treatment

mushroom tyrosinase, sequence (C7FF04 1-392): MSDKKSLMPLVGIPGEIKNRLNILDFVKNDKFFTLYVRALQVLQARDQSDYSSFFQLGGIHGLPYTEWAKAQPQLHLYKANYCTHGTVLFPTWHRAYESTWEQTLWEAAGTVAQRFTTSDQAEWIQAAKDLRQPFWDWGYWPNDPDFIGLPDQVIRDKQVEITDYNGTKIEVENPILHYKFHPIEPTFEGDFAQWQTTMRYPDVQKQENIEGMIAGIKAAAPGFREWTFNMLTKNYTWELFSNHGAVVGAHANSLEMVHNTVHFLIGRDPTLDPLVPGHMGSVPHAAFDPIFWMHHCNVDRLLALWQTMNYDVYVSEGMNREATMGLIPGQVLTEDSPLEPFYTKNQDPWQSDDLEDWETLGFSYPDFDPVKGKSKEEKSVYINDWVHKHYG

| IC50 (mushroom tyrosinase; [1]) [µM] | IC50 (mushroom tyrosinase; [2]) [µM] | IC50 (mushroom tyrosinase; [3]) [µM] | IC50 (mushroom tyrosinase; [4]) [µM] | Compound | cAMP level (cAMP in B16F10 cells) | cAMP level compared to the control (cAMP in B16F10 cells) | activity at 35 µg/mL (B16F10 cells; after plasma treatment for 10 min, absence of α-MSH) [%] | activity at 35 µg/mL (B16F10 cells; as-synthesized, absence of α-MSH) [%] | activity at 35 µg/mL (B16F10 cells; as-synthesized, presence of α-MSH) [%] | melanin, % of control (normalized to 100%) (B16F10 cells) [%] |
| --- | --- | --- | --- | --- | --- | --- | --- | --- | --- | --- |
| 84.7 | 70.1 | 67.2 | 40.9 | C=CCc1ccc(OC(=O)COC(=O)c2ccc(O)cc2)c(OC)c1 [4b, 2-[2-methoxy-4-(prop-2-en-1-yl)phenoxy]-2-oxoethyl 4-hydroxybenzoate] | enhanced even further | increased | 143 | 125 | 156 | 126 |
| 13.6 | 13.6 | 13.6 | 8.14 | C=CCc1ccc(OC(=O)COC(=O)/C=C/c2ccc(O)cc2)c(OC)c1 [6a, 2-[2-methoxy-4-(prop-2-en-1-yl)phenoxy]-2-oxoethyl(2E)-3-(4-hydroxyphenyl)prop-2-enoate] | enhanced even further | increased | – | – | – | 125 |
